Assays:
α1β2γ2 GABAA receptor = biological target: T1, α1β2γ2 GABAA receptor (Mus musculus, UniProt P22723+P62812+P63137); test: two-electrode voltage clamp in Xenopus oocytes; potentiation of currents induced by […] GABA; assay type: cell-based
T1 construct: gene Gabra1; murine α1, β2, and γ2 GABAA subunits expressed in Xenopus laevis oocytes; with GABAA receptor β2 (Gabrb2) and γ2 (Gabrg2) subunits

rat ASIC1a (rASIC1a) = biological target: T2, rat ASIC1a (rASIC1a) (Rattus norvegicus, UniProt P55926); test: two-electrode voltage clamp in Xenopus oocytes; inhibition of pH […].0-induced currents; assay type: cell-based
T2 construct: gene Asic1; homomeric rat ASIC1a expressed in Xenopus laevis oocytes
T2 sequence (P55926 1-526): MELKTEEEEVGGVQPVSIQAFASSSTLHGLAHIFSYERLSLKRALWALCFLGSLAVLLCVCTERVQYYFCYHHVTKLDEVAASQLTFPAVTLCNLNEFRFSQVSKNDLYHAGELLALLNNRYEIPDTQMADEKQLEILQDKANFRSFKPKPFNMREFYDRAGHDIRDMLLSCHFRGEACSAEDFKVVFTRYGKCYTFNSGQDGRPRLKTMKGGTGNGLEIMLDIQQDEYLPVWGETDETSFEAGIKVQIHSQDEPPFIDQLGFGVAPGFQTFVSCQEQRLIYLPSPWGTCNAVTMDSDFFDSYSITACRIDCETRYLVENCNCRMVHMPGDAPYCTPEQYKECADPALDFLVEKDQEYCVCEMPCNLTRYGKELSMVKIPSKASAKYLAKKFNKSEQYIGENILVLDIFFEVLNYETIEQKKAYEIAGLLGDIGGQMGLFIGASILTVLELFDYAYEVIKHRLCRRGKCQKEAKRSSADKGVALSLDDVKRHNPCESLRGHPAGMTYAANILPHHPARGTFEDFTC

T1 sequence (P62812 28-455): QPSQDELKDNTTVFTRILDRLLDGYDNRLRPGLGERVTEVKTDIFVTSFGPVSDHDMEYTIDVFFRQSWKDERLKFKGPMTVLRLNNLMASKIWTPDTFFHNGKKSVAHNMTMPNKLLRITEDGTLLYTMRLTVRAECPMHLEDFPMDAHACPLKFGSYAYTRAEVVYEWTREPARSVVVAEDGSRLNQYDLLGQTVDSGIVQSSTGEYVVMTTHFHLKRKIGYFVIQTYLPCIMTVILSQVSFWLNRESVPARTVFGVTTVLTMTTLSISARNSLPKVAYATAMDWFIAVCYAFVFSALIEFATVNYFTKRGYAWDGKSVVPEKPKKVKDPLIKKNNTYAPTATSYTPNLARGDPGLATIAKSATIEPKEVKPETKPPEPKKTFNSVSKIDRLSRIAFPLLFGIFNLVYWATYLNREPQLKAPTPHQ
T1 sequence (P63137 26-512): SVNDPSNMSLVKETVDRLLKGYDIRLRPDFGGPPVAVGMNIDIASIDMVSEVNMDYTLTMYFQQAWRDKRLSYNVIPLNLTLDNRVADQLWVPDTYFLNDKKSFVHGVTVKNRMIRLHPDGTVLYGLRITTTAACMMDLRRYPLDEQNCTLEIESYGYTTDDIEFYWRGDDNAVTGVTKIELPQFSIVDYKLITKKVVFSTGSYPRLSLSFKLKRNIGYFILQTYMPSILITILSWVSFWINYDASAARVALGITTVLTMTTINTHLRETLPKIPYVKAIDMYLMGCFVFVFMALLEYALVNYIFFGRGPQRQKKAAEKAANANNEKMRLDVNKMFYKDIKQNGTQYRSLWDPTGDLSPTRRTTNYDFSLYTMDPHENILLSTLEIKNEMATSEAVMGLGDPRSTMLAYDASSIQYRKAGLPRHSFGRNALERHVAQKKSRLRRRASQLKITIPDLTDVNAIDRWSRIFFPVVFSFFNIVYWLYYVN
T1 sequence (P22723 39-474): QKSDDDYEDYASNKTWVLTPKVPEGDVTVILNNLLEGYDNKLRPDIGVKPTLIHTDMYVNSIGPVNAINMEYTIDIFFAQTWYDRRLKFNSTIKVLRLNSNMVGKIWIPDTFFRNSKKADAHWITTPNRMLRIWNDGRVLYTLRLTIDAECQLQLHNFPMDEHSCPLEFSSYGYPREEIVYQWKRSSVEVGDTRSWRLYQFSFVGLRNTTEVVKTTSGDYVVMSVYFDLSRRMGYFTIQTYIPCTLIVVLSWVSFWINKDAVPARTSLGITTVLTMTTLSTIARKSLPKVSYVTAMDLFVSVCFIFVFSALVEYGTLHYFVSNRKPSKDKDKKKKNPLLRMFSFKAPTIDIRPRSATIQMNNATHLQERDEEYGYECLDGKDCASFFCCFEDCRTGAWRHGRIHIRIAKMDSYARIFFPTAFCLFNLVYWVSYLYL

EC50 (α1β2γ2 GABAA receptor): 0.56 ± 0.04 µM
IC50 (rat ASIC1a (rASIC1a)): 198 ± 19 µM
SMILES: O=C(O)C[C@H](C(=O)O)[C@H](OC(=O)[C@@H]1C(C(=O)O[C@@H](C(=O)O)[C@@H](CC(=O)O)C(=O)O)=Cc2cc(O)c(O)cc2[C@H]1c1ccc(O)c(O)c1)C(=O)O [sevanol]

Source: PMC10487430, “Dual Modulator of ASIC Channels and GABAA Receptors from Thyme Alters Fear-Related Hippocampal Activity” (International Journal of Molecular Sciences, 2023)
